From US12480137B2, “Plants having increased tolerance to herbicides” (BASF SE, priority 2014, dated 2025)

Tests used:
Assay type in all cases: in vivo, Arabidopsis thaliana
[1] = tested on: transgenic Arabidopsis plants, construct AtCESA1_G1013R; experiment: Growth inhibition of transgenic Arabidopsis in 48-well plates, tolerance factor from IC50; conditions: SEQ ID NO 1, substitution G1013R, growth inhibition seven to ten days after seeding
Source text: (§1) For transformation of Arabidopsis thaliana, wildtype or mutated cellulose synthase sequences based on one of the following sequences SEQ ID NO: 72, 73, 74, 75, 76, or 77, are cloned with standard cloning techniques as described in Sambrook et al. (Molecular cloning (2001) Cold Spring Harbor Laboratory Press) in a binary vector containing resistance marker gene cassette (AHAS) and mutated cellulose synthase sequence (marked as GOI) in between ubiquitin promoter (PcUbi) and nopaline synthase terminator (NOS) sequence. Binary plasmids are introduced to Agrobacterium tumefaciens for plant transformation. Arabidopsis thaliana are transformed with wildtype or mutated cellulose synthase sequences by floral dip method as decribed by McElver and Singh (WO 2008/124495). Transgenic Arabidopsis plants are subjected to TaqMan analysis for analysis of the number of integration loci.
(§2) Transgenic Arabidopsis thaliana plants are assayed for improved tolerance to azine herbicides like e. g. 6-cyclopentyl-N4-(2,3,4,5,6-pentafluorophenyl)-1,3,5-triazine-2,4-diamine in 48-well plates. Therefore, T2 seeds are surface sterilized by stirring for 5 min in ethanol+water (70+30 by volume), rinsing one time with ethanol+water (70+30 by volume) and two times with sterile, deionized water. The seeds are resuspended in 0.1% agar dissolved in water (w/v) Four to five seeds per well are plated on solid nutrient medium consisting of half-strength murashige skoog nutrient solution, pH 5.8 (Murashige and Skoog (1962) Physiologia Plantarum 15: 473-497). Compounds are dissolved in dimethylsulfoxid (DMSO) and added to the medium prior solidification (final DMSO concentration 0.1%). Multi well plates are incubated in a growth chamber at 22° C., 75% relative humidity and 110 μmol Phot*m^−2*s^−1 with 14:10 h light:dark photoperiod. Growth inhibition is evaluated seven to ten days after seeding in comparison to wild type plants. Tolerance factors are calculated based on IC50 values of growth inhibition of transformed versus non-transformed Arabidopsis plants.

[2] = tested on: transgenic Arabidopsis plants, construct AtCESA3_S1037F; experiment: as above; conditions: SEQ ID NO 3, substitution S1037F, growth inhibition seven to ten days after seeding
Source text: as §1, §2

[3] = tested on: transgenic Arabidopsis plants, construct AtCESA3_wt; experiment: as above; conditions: SEQ ID NO 3, growth inhibition seven to ten days after seeding
Source text: as §1, §2

[4] = tested on: transgenic Arabidopsis plants, construct AtCESA3_S1040L; experiment: as above; conditions: SEQ ID NO 3, substitution S1040L, growth inhibition seven to ten days after seeding
Source text: as §1, §2

[5] = tested on: transgenic Arabidopsis plants, construct AtCESA1 wt; experiment: as above; conditions: SEQ ID NO 1, growth inhibition seven to ten days after seeding
Source text: as §1, §2

A. thaliana WT L. erecta [6] = experiment: Greenhouse phytotox, post-emergent treatment 6 weeks after sowing
Description: (§3) Additionally, M2 or M3 Arabidopsis plants are tested for improved tolerance to cellulose biosynthesis-inhibiting herbicides in greenhouse studies (e. g. with the following cellulose biosynthesis-inhibiting herbicides: 6-cyclopentyl-N4-(2,3,4,5,6-pentafluorophenyl)-1,3,5-triazine-2,4-diamine; 6-(1-fluoro-1-methyl-ethyl)-N4-(2,3,4,5,6-pentafluorophenyl)-1,3,5-triazine-2,4-diamine; N4-(4-chloro-3,5,6-trifluoro-2-pyridyl)-6-(1-fluoro-1-methyl-ethyl)-1,3,5-triazine-2,4-diamine; 6-(2,6-difluorophenyl)-N4-(2,3,5,6-tetrafluorophenyl)-1,3,5-triazine-2,4-diamine; N4-(4-bromo-2,3,5,6-tetrafluoro-phenyl)-6-(1-fluoro-1-methyl-ethyl)-1,3,5-triazine-2,4-diamine.

[7] = tested on: Cesa1_P1010L, fpx2-2 mutant line; experiment: as above
Description: as §3

[8] = tested on: Cesa3_S983F, fpx1-3 mutant line; experiment: as above
Description: as §3

[9] = tested on: Cesa3_S1040L, fpx1-1 mutant line; experiment: as above
Description: as §3

[10] = tested on: Cesa1_G1013R, fpx2-1 mutant line; experiment: as above
Description: as §3

[11] = tested on: Cesa3_S1037F, fpx1-2 mutant line; experiment: as above
Description: as §3

[12] = tested on: Cesa1_G1009D, fpx2-3 mutant line; experiment: as above
Description: as §3

A. thaliana WT L. erecta [13] = experiment: Greenhouse phytotox, pre-emergent treatment
Description: as §3

[14] = tested on: Cesa1_P1010L, fpx2-2 mutant line; experiment: Greenhouse phytotox, pre-emergent treatment
Description: as §3

[15] = tested on: Cesa3_S983F, fpx1-3 mutant line; experiment: Greenhouse phytotox, pre-emergent treatment
Description: as §3

[16] = tested on: Cesa3_S1040L, fpx1-1 mutant line; experiment: Greenhouse phytotox, pre-emergent treatment
Description: as §3

[17] = tested on: Cesa1_G1013R, fpx2-1 mutant line; experiment: Greenhouse phytotox, pre-emergent treatment
Description: as §3

[18] = tested on: Cesa3_S1037F, fpx1-2 mutant line; experiment: Greenhouse phytotox, pre-emergent treatment
Description: as §3

[19] = tested on: Cesa1_G1009D, fpx2-3 mutant line; experiment: Greenhouse phytotox, pre-emergent treatment
Description: as §3

## Cc1cccc(-n2nc(C(N)=O)nc2-c2ccccc2)c1 [1-(m-tolyl)-5-phenyl-1,2,4-triazole-3-carboxamide, reference compound]
[1]
  Relative tolerance rate (non-transgenic = 1.0): 33
[2]
  Relative tolerance rate (non-transgenic = 1.0): 1333
[3]
  Relative tolerance rate (non-transgenic = 1.0): 4
[4]
  Relative tolerance rate (non-transgenic = 1.0): 2
[5]
  Relative tolerance rate (non-transgenic = 1.0): 3
A. thaliana WT L. erecta [6]; 62.5 g ai/ha
  Phytotox value on a scale from 0-100 (100 is 100% damage): 78
A. thaliana WT L. erecta [6]; 125 g ai/ha
  Phytotox value on a scale from 0-100 (100 is 100% damage): 83
A. thaliana WT L. erecta [6]; 250 g ai/ha
  Phytotox value on a scale from 0-100 (100 is 100% damage): 95
[7]; 62.5 g ai/ha
  Phytotox value on a scale from 0-100 (100 is 100% damage): 15
[7]; 125 g ai/ha
  Phytotox value on a scale from 0-100 (100 is 100% damage): 15
[7]; 250 g ai/ha
  Phytotox value on a scale from 0-100 (100 is 100% damage): 48
[8]; 62.5 g ai/ha
  Phytotox value on a scale from 0-100 (100 is 100% damage): 28
[8]; 125 g ai/ha
  Phytotox value on a scale from 0-100 (100 is 100% damage): 23
[8]; 250 g ai/ha
  Phytotox value on a scale from 0-100 (100 is 100% damage): 53
[9]; 62.5 g ai/ha
  Phytotox value on a scale from 0-100 (100 is 100% damage): 0
[9]; 125 g ai/ha
  Phytotox value on a scale from 0-100 (100 is 100% damage): 23
[9]; 250 g ai/ha
  Phytotox value on a scale from 0-100 (100 is 100% damage): 55
[10]; 62.5 g ai/ha
  Phytotox value on a scale from 0-100 (100 is 100% damage): 23
[10]; 125 g ai/ha
  Phytotox value on a scale from 0-100 (100 is 100% damage): 33
[10]; 250 g ai/ha
  Phytotox value on a scale from 0-100 (100 is 100% damage): 40
[11]; 62.5 g ai/ha
  Phytotox value on a scale from 0-100 (100 is 100% damage): 30
[11]; 125 g ai/ha
  Phytotox value on a scale from 0-100 (100 is 100% damage): 50
[11]; 250 g ai/ha
  Phytotox value on a scale from 0-100 (100 is 100% damage): 68
[12]; 62.5 g ai/ha
  Phytotox value on a scale from 0-100 (100 is 100% damage): 23
[12]; 125 g ai/ha
  Phytotox value on a scale from 0-100 (100 is 100% damage): 33
[12]; 250 g ai/ha
  Phytotox value on a scale from 0-100 (100 is 100% damage): 45
A. thaliana WT L. erecta [13]; 3.91 g ai/ha
  Phytotox value on a scale from 0-100 (100 is 100% damage): 0
A. thaliana WT L. erecta [13]; 15.63 g ai/ha
  Phytotox value on a scale from 0-100 (100 is 100% damage): 63
A. thaliana WT L. erecta [13]; 62.5 g ai/ha
  Phytotox value on a scale from 0-100 (100 is 100% damage): 100
A. thaliana WT L. erecta [13]; 250 g ai/ha
  Phytotox value on a scale from 0-100 (100 is 100% damage): 100
[14]; 3.91 g ai/ha
  Phytotox value on a scale from 0-100 (100 is 100% damage): 0
[14]; 15.63 g ai/ha
  Phytotox value on a scale from 0-100 (100 is 100% damage): 20
[14]; 62.5 g ai/ha
  Phytotox value on a scale from 0-100 (100 is 100% damage): 13
[14]; 250 g ai/ha
  Phytotox value on a scale from 0-100 (100 is 100% damage): 35
[15]; 3.91 g ai/ha
  Phytotox value on a scale from 0-100 (100 is 100% damage): 0
[15]; 15.63 g ai/ha
  Phytotox value on a scale from 0-100 (100 is 100% damage): 8
[15]; 62.5 g ai/ha
  Phytotox value on a scale from 0-100 (100 is 100% damage): 5
[15]; 250 g ai/ha
  Phytotox value on a scale from 0-100 (100 is 100% damage): 30
[16]; 3.91 g ai/ha
  Phytotox value on a scale from 0-100 (100 is 100% damage): 38
[16]; 15.63 g ai/ha
  Phytotox value on a scale from 0-100 (100 is 100% damage): 30
[16]; 62.5 g ai/ha
  Phytotox value on a scale from 0-100 (100 is 100% damage): 0
[16]; 250 g ai/ha
  Phytotox value on a scale from 0-100 (100 is 100% damage): 25
[17]; 3.91 g ai/ha
  Phytotox value on a scale from 0-100 (100 is 100% damage): 5
[17]; 15.63 g ai/ha
  Phytotox value on a scale from 0-100 (100 is 100% damage): 15
[17]; 62.5 g ai/ha
  Phytotox value on a scale from 0-100 (100 is 100% damage): 20
[17]; 250 g ai/ha
  Phytotox value on a scale from 0-100 (100 is 100% damage): 15
[18]; 3.91 g ai/ha
  Phytotox value on a scale from 0-100 (100 is 100% damage): 0
[18]; 15.63 g ai/ha
  Phytotox value on a scale from 0-100 (100 is 100% damage): 30
[18]; 62.5 g ai/ha
  Phytotox value on a scale from 0-100 (100 is 100% damage): 23
[18]; 250 g ai/ha
  Phytotox value on a scale from 0-100 (100 is 100% damage): 68
[19]; 3.91 g ai/ha
  Phytotox value on a scale from 0-100 (100 is 100% damage): 0
[19]; 15.63 g ai/ha
  Phytotox value on a scale from 0-100 (100 is 100% damage): 18
[19]; 62.5 g ai/ha
  Phytotox value on a scale from 0-100 (100 is 100% damage): 30
[19]; 250 g ai/ha
  Phytotox value on a scale from 0-100 (100 is 100% damage): 45
